The record followed here is patent EP0068806A2, “Basic acyl amides of (5-amino-1,3-dialkylpyrazol-4-yl)(aryl)methanones, processes for their production, and pharmaceutical compositions containing such compounds” (WARNER-LAMBERT COMPANY, priority 1981, dated 1983).

The test system of the test is Long-Evans rats or squirrel-monkeys. In words: Conditioned lever-press avoidance of electric footshock (antipsychotic activity). The class given is in vivo. Conditions: avoidance test for antipsychotic activity; Long-Evans rats or squirrel-monkeys (species per value not stated). As for the experimental part:
Representative compounds of the invention (identified in the examples) were also tested for antipsychotic activity according to the following protocol. The noted compounds had the indicated ED50 values (mg/kg) and are considered active as antipsychotic agents in the test procedure.
Mature male Long-Evans rats or squirrel-monkeys are conditioned to push a lever in order to avoid a painful electric footshock. If the animal fails to push the. lever, he receives a shock every 10 seconds until the lever is pushed. Shocks can be terminated by pushing the lever. Thereafter, as long as the lever is pushed at least once every 20 seconds, there will be no shock.
Each animal acts as its own control; one weekly session is used to establish baseline behavior and another session later in the week is used as a drug session. Once patterns of avoidance are established, the effects of standard and unknown compounds are studied.
All events are electronically programmed and the response to these events counted or used as feed-back to the program.

SMILES strings stand for the structures.

In general, ED50 refers to the dose at which the effect has come halfway, by size or by number of responders. A higher ED50 goes with weaker potency. For `Cc1nn(C)c(NC(=O)CN2CCCC2)c1C(=O)c1ccccc1F` [Compound 1, N-[4-(2-Fluorobenzoyl)-1,3-dimethyl-1H-pyrazol-5-yl]-1-pyrrolidineacetamide], the ED50 was found to be 48.2 mg/kg. On to `Cc1nn(C)c(NC(=O)CSCCCN2CCCCC2C)c1C(=O)c1ccccc1F` (stereo not drawn) [Compound 43, N-[4-(2-Fluorobenzoyl)-1,3-dimethyl-1H-pyrazol-5-yl]-2-[[3-(2-methyl-1-piperidinyl)propyl]thio]acetamide], for which the ED50 worked out at 26.5 mg/kg. Regarding `Cc1nn(C)c(NC(=O)CNCCCN2CCOCC2)c1C(=O)c1ccccc1F` [Compound 35], the ED50 was 51.6 mg/kg. In the case of `CC1=C(NCCN(C)CC(=O)Nc2c(C(=O)c3ccccc3F)c(C)nn2C)CCC1=O` [Compound 38, N-[4-(2-Fluorobenzoyl}-1,3-dimethyl-1H-pyrazol-5-yl]-2-[mothyl[2-[(2-methyl-3-oxo-1-cyclopenten-1-yl}amino]ethyl]amino]acetamide] it was 21.7 mg/kg; in that of `CCN(CC)CC(=O)Nc1c(C(=O)c2ccccc2F)c(C)nn1C` [Compound 6, 2-(Diethylamino)-N-[4-(2-fluorobenzoyl)-1,3-dimethyl-1H-pyrazol-5-yl]acetamide], 25.6 mg/kg; in that of `Cc1nn(C)c(NC(=O)CNCC2(C)OCCO2)c1C(=O)c1ccccc1F` [Compound 8, N-[4-(2-Fluorobenzoyl)-1,3-dimethyl-1H-pyrazol-5-yl]-3-[[(2-methyl-1,3-dioxolan-2-yl)methyl]amino]acetamide], 36.4 mg/kg. For `Cc1nn(C)c(NC(=O)CN2CC3CCC(CC3)C2)c1C(=O)c1ccccc1F` [Compound 9, N-[4-(2-Fluorobenzoyl)-1,3-dinethyl-1H-pyrazol-5-yl]-3-azabicyclo-[3,2,2]nonane-3-acetamide] the value was 36.3 mg/kg. In the case of `Cc1nn(C)c(NC(=O)CNCCCN2CCCCC2C)c1C(=O)c1ccccc1F` (stereo not drawn) [Compound 20, N-[4-(2-Fluorobenzoyl)-1,3-dimethyl-1H-pyrazol-5-yl]-2-[[3-(2-methyl-1-piperidinyl)propyl]amino]acetamide] it was 21.4 mg/kg. `Cc1nn(C)c(NC(=O)CN2CCCCC2)c1C(=O)c1ccccc1F` [Compound 5, N-[4-(2-Fluorobenzoyl)-1,3-dimethyl-1H-pyrazol-5-yl]-1-piperidine-acetamide] displayed an ED50 of 48 mg/kg.
